Data: US20020131996A1, “Methods and compositions for blocking microbial adherence to eukaryotic cells” (priority 2001, published 2002)

Experiments:
Type in all cases: in vivo, human
[1] = tested on: infectious diarrhea (diarrheal agent not known); assay: Treatment of infectious diarrhea with oral isoleucine solution
Experimental: In this example isoleucine was administered to treat infectious diarrhea. In this example three individuals were naturally innoculated by a common agent. The nature of the diarrheal agent is not known. The duration of diarrhea was consistent with an infectious etiology. Isoleucine was utilized based on the hypothesis that reduction in microbial adherence would likely limit the continued re-infection of the gut wall by the agent, and/or prevent attachment of opportunistic commensal organisms.
Three members of a family traveling in the Middle East (MZ, BZ, JZ) contracted watery diarrhea, associated with food intolerance, following a meal they shared at a restaurant. Each individual had been in excellent health without prior history of GI complaints. All were unmedicated, including aspirin or antihistamines. […] Diarrhea was watery, without gross blood, minimal mucous, slight fever with chills, no nausea, and persistence of hunger. Peristalsis was vigorous and increased by ingestion of food. Each individual was placed on a diet restricted to clear liquids (juices and soda), digestible carbohydrates (bread, rice, candy). No medications were administered.
Six days after ingestion of the diarrheal agent, one individual was begun on oral isoleucine (ILE) therapy, while the other two continued on restricted diets. ILE (#E-2025 Bachem, lot 511191) was dissolved in distilled water to 0.001%. One glass of ILE solution (about 250 ml) was consumed every several hours. A total of about 4 liters was consumed over {fraction (3 1/2)}days. A reduction in stool frequency was noted within 12 hours of initiation of ILE therapy.

[2] = tested on: bacteria adherent to gingival epithelial cells; assay: Microbial adherence to gingival epithelial cells in volunteers with low grade gingivitis (Giemsa-stained gingival scrapings)
Text: In this example isoleucine was applied as a pure crystalline powder directly to the gums. The individuals were normal human volunteers. Each individual had clinically evident low grade gingivitis, as determined by the puffiness of the gingival margin and a history of some bleeding during normal dental brushing. Oral health care comprised twice daily flossing and dental brushing with a non-medicated toothpaste. No oral antiseptic was used. The individuals were not taking antibiotics. Isoleucine was applied by application of powder on the fingertip to the outer and inner gum margins of the upper and lower jaws. The entirety of the gingival surface was covered manually, twice daily. The AM application was performed following breakfast, immediately after brushing. The PM application was conducted prior to retiring for sleep.
Gingival surface was gently scrapped with the side of a rectangular glass cover slip and the material described was applied to a glass microscope slide and air-dried. The slide was stained in concentrated Giemsa stain for 1 min, then destained in water for 5 min. The slide was then air-dried and mounted with a cover slip cemented with Permount. Slides were examined by light microscopy at 100×and 400×magnification. Under these staining conditions bacteria were clearly visualized as dark blue particles against the pale gray epithelial cells.
Gingival scrapings were taken in the morning prior to normal oral care and prior to eating. Prior to scraping, the subject rinsed the mouth with a cup of water to wash free particulate matter, unattached cells, and bacteria.
Scrapings were taken 3 days and 1 day prior to isoleucine administration and 1, 3, 5, and 7 days during isoleucine application. […] The bacteria adherent were represented by several different species, distinguished by morphology. […] At least 200 bacteria were counted on the average on each cell.

[3] = tested on: irritable bowel syndrome (IBS); assay: Amelioration of irritable bowel syndrome with isoleucine in yogurt
Experimental: In this example isoleucine was administered to individuals who experienced irritable bowel syndrome (IBS). IBS is a loosely defined condition associated with bowel discomfort including abdominal bloating, nausea, pain, and a sense of incomplete bowel movements. The etiology underlying IBS is unknown. It is our hypothesis that IBS results from adherence of certain “pathogenic” commensal organisms to the epithelial lining of certain segments of the GI tract, resulting in disturbance of normal host-bacteria relationships. […] Two women, each in their mid-50's, presented with a history of IBS of over 20 years, in each case. In each, IBS was characterized by a sense of bloating experienced after eating cooked or raw vegetables, fruits, and meat. Each individual experienced urgency to move her bowels several times a day to an extent that often awakened the individuals from sleep. Bloating was accompanied by abdominal discomfort, described as mild cramps. Individuals felt “gassy” most of the day. Each individual was given isoleucine, 1 tsp, twice a day, each dose mixed in ½cup of yogurt. The yogurt was included to promote reinoculation of the GI tract with probiotic “good” bacteria. In each case, it was known from previous experience that yogurt itself had little effect on the IBS experienced by these individuals. Within 2 days of isoleucine administration, bloating, urgency to defecate, and gassiness had disappeared. Both individuals described the state of their bowel function as “normal”, for the first time in 20 years. […] Each was then withdrawn from isoleucine, and provided yogurt unsupplemented with isoleucine. Within about 2 days both women recorded a reappearance of the former symptoms of IBS.

bacterial vaginosis = assay: Amelioration of bacterial vaginosis with isoleucine powder applied in the vagina
Experimental: In this example isoleucine was administered locally to the vagina to treat the symptoms of bacterial vaginosis. By inhibiting the adherence of bacteria to the wall of the vagina, microbial growth, inflammation, and associated signs of malodorous discharge and symptoms such as pruritis can be treated. A person, with a normal menstrual cycle and in excellent health, experienced vaginal irritation and malodorous discharge associated with their cycle, generally beginning several days prior to the onset of their period. Isoleucine was self-administered as a powder locally within the vaginal cavity digitally, twice a day. Within 2 days symptoms of vaginosis disappeared. Isoleucine therapy was continued for several days following termination of menstrual discharge, and then stopped. […] Isoleucine was again administered during the following months, cycled as described initially.

[4] = Day 1 of isoleucine powder applied to gums twice daily
[5] = Day 3 of isoleucine powder applied to gums twice daily
[6] = Day 7 of isoleucine powder applied to gums twice daily

SMILES: CC[C@H](C)[C@H](N)C(=O)O [isoleucine]
- Shortening of the duration of diarrhea ([1]; MZ versus two untreated family members (BZ, JZ)): approximately three
- Stools passed on the 3rd day of ILE therapy ([1]; individual, 3rd day): no stools were passed
- Food tolerance ([1]; individual, by the 3rd day): cheese and chicken tolerated
- Stool by day 4 following ILE treatment ([1]; individual, day 4): a normal stool was passed
- Time to reduction in stool frequency after initiation of ILE therapy ([1]; one individual, 0.001% ILE in distilled water, oral, begun six days after ingestion of agent): ≤ 12 h
- Change in number of epithelial cells covered with a dense coat of bacteria ([2]; Day 1 following initiation of isoleucine application): little change
- Gingival epithelial cells with 0 Bacteria [2, 4]: 0 % cells
- Gingival epithelial cells with 1-10 Bacteria [2, 4]: 10 % cells
- Gingival epithelial cells with 10-100 Bacteria [2, 4]: 10 % cells
- Gingival epithelial cells with Contiguous lawn of bacteria [2, 4]: 80 % cells
- Adherent bacteria in gingival smears ([2]; Day 3): dramatic reduction
- Microcolonies (contiguous groupings of greater than 4 organisms) on cells ([2]; Day 3): Few
- Neutrophils in gingival smear (sign of inflammation) ([2]; Day 3): No neutrophils were evident
- Total adherent bacteria per cell (most cells) ([2]; Day 3): < 100
- Cells fully covered with bacteria, of 100 cells examined ([2]; Day 3, of 100 cells examined): 40
- Gingival epithelial cells with 0 Bacteria [2, 5]: 15 % cells
- Gingival epithelial cells with 1-10 Bacteria [2, 5]: 15 % cells
- Gingival epithelial cells with 10-100 Bacteria [2, 5]: 30 % cells
- Gingival epithelial cells with Contiguous lawn of bacteria [2, 5]: 40 % cells
- Breath as described by an examiner in the AM prior to oral hygiene ([2]; Day 7): free of odor
- Gingival epithelial cells with 0 Bacteria [2, 6]: 80 % cells
- Gingival epithelial cells with 1-10 Bacteria [2, 6]: 15 % cells
- Gingival epithelial cells with 10-100 Bacteria [2, 6]: 0 % cells
- Gingival epithelial cells with Contiguous lawn of bacteria (fully covered) [2, 6]: 5 % cells
- Response during maintenance on isoleucine ([3]; maintained for 1 month): consistent response
- State of bowel function as described by the individuals ([3]; two women on isoleucine in yogurt): normal
- Time to disappearance of bloating, urgency to defecate, and gassiness ([3]; two women, isoleucine 1 tsp twice a day in 1/2 cup yogurt): ≤ 2 days
- Time to reappearance of former IBS symptoms after withdrawal from isoleucine ([3]; yogurt unsupplemented with isoleucine): about 2 days
- Symptoms following cessation of isoleucine administration (bacterial vaginosis; after cessation): remained symptom free
- Outcome of chronic vaginosis based on symptoms and signs (bacterial vaginosis; cycled administration during following months): effectively cured
- Time to disappearance of symptoms of vaginosis (bacterial vaginosis; one person, powder in the vaginal cavity twice a day): ≤ 2 days
